Like-named read-outs stand apart in the source and are kept apart here.
Assays:
Format in all cases: cell-based
P. falciparum = experiment: Involvement of enzymatic activity in GX sPLA2-induced inhibition of parasite growth (schizont-enriched culture, 24 h); conditions: 37.5 μM LY329722 plus 50 nM GX sPLA2, 24 h
Protocol: Parasitaemia (%) at t 0 h and t 24 h were determined from Diff Quick-stained smears. Y axis states increase of parasitaemia (A parasitaemia (%)), expressed as parasitaemia at t 24 h-parasitaemia at t 0 h;
Parasitaemia (%) before incubation, and after 24 h of incubation, was determined from Diff Quick-stained smears. Parasite growth was expressed as the percent delta of parasitaemia, using the following formula:
ΔP=[(Px−P0)/(P100−P0)]×100; where ΔP is in percent, P0 is the parasitaemia (%) in the initial culture, P100 is the parasitaemia (%) after 24 h in normal culture conditions, and Px is the parasitaemia (%) after 24 h in experimental conditions.

[1] = system: P. falciparum FcB1 strain; experiment: In vitro chemosensitizing activity of PAF on hGX sPLA2 (response modification index); conditions: fixed sub-inhibitory PAF 25 μM, 37.5 μM and 50 μM
Protocol: The effects of serial concentrations of PAF (platelet-activating factor) on the susceptibility of the P. falciparum FcB1 strain to GX sPLA2 were assessed in vitro. A P. falciparum culture (1% parasitaemia, 2% haematocrit) was incubated in a 96-well microplate with decreasing concentrations of the recombinant GX sPLA2 in the presence of a fixed, sub-inhibitory concentration of PAF. The response modification index (RMI) as a function of PAF concentration is represented. RMI is the ratio of the 50% inhibitory concentrations (IC50) for GX sPLA2 plus the concentration of PAF, and GX sPLA2 alone. An RMI of 1.0 represents no change in the IC50 for GX sPLA2 when combined with PAF. The RMI values<1.0 represent the degree of potentiation or synergism.
Quantitative analysis of the increased activity of recombinant hGX sPLA2 when combined with PAF was done by comparing concentration-response curves for hGX sPLA2 alone and in the presence of several fixed, sub-inhibitory concentrations of PAF. Effects of each fixed concentration of PAF on the response of the parasites (IC50) to hGX sPLA2 were expressed as the response modification index (RMI) (Oduola et al., 1998). The RMI was calculated by the following formula: RMI=IC50(A,B)/IC50(A), where drug A is hGX sPLA2 and B is PAF. An RMI of 1.0 represents no change in the IC50 for the recombinant hGX sPLA2 combined with PAF. […]

[2] = system: P. falciparum FcB1/Colombian strain; experiment: Anti-Plasmodium activity assay (dose-response, 3H-hypoxanthine incorporation), culture with human serum; conditions: read-out: IC50 on Plasmodium intra-erythrocytic development
Protocol: The chloroquine-resistant P. falciparum FcB1/Colombian strain was used. Under the following culture conditions, the in vitro life cycle of the FcB1 strain was 48 hours. Cultures were grown in complete medium consisting of RPMI 1640 (Life Technologies, Inc.) supplemented with 11 mM glucose, 27.5 mM NaHCO3, 100 UI/mL penicillin, 100 μg/mL streptomycin, adjusted to pH 7.4 before addition of heat-inactivated human serum (A+ blood group, 8% final) or Albumax II® (0.5% final), according to the procedure of Trager and Jensen (1976). Parasites were routinely grown at 37° C. in human A+ RBCs (Red blood cells) at a 2% haematocrit and 2-6% parasitemia, in a 3% CO2, 6% O2 and 91% N2 atmosphere. Semi-synchronized cultures were established by Sorbitol (Lambros) treatment. Highly synchronized cultures (4 hour-window synchronization) were obtained by successive Plamion (Pasvol) and Sorbitol treatments. Parasitaemia and stage distribution were determined by optical examination of Diff-Quick stained culture smears. Parasitaemia (expressed in percent) is hundred times the number of parasitized erythrocytes divided by the total number of erythrocytes.
Dried preparations of the purified recombinant human sPLA2s were re-suspended at high concentration (usually 50 μM) in RPMI 0.05% BSA, and then tested individually for their capacity to inhibit the in vitro intra-erythrocytic development of P. falciparum. Dose-response assays based on ^3H-hypoxanthine incorporation by growing parasites were performed as in Guillaume et al. (2004). Radioactivity was measured with a 1450 Microbeta counter (Wallac, Perkin Elmer). Percentage of growth inhibition was calculated from the parasite-associated radioactivity compared with control without sPLA2. Values for the IC50 were determined from dose-response curves.

Molecule | effect on GX sPLA2-induced inhibition of parasite growth (P. falciparum) | response modification index (RMI) = IC50(GX sPLA2 + PAF)/IC50(GX sPLA2) [1] | IC50 ([2]; serum PAF-AH inhibited by Pefabloc) | IC50 ([2]; standard culture conditions)
CCc1c(C(=O)C(N)=O)c2c(OCC(=O)O)cc(C)cc2n1Cc1ccccc1 [LY329722, sodium [3-aminooxalyl-1-benzyl-2-ethyl-6-methyl-1H-indol-4-yloxy]-acetic acid] | Inhibition of parasite growth was removed |  |  | 
platelet-activating factor [PAF] |  | < 1 | 95 ± 2.8 µM | 82 ± 1.2 µM

From patent US8709741B2, “Methods of diagnosing a plasmodium infection” (priority 2009, dated 2014)
